Among the data in US11963960B2 (Flash Therapeutics, LLC, priority 2020, dated 2024) are IC50 values, retold here.

Read-outs that look alike come from different tables or passages of the source.

The target of the assay is N-terminally GST-tagged HCK (75-526) (Homo sapiens (Human), UniProt P08631). As to the kind of experiment: HCK Kinase Assay (ProFluor Src-Family Kinase Assay). Format: biochemical. In short, it runs like this:
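ProFluor Src-family format: after the kinase reaction, protease solution was added for 60 min at room temperature (22-25° C), then stabilizer.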

[1] abbreviates: HCK inhibitory activity, 50 μM ATP, read-out: HCK Activity.

N-terminally GST-tagged HCK (75-526), sequence (P08631 75-526): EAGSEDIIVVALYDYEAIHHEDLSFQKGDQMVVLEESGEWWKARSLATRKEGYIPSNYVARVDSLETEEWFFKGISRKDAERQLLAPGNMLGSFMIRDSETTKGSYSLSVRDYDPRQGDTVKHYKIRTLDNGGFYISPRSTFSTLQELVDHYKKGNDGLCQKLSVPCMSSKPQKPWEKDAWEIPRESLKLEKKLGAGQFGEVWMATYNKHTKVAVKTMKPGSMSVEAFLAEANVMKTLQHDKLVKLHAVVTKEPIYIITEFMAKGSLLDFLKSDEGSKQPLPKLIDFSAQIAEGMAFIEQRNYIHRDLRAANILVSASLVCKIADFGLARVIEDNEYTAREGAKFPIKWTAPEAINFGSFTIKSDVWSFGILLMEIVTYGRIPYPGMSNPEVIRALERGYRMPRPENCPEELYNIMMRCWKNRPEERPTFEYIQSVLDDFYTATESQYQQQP

As to `CN1CCN([C@H]2CC[C@H](n3cc(-c4ccc(CC(=O)Nc5cc(C(C)(C)C)on5)cc4)c4c(N)ncnc43)CC2)CC1` [Example 124, 2-(4-(4-amino-7-((trans)-4-(4-methylpiperazin-1-yl)cyclohexyl)-7H-pyrrolo[2,3-d]pyrimidin-5-yl)phenyl)-N-(5-(tert-butyl)isoxazol-3-yl)acetamide], the IC50 under setting [1] was 50 to 250 nM. On the same count and under the same terms, as for `Nc1ncnc2c1c(-c1ccc(Oc3ccccc3)cc1)cn2C1CCC2(CC1)CCN(CCCCO)CC2` [Example 140, 4-(9-(4-amino-5-(4-phenoxyphenyl)-7H-pyrrolo[2,3-d]pyrimidin-7-yl)-3-azaspiro[5.5]undecan-3-yl)butan-1-ol], the figure is 50 to 250 nM; as for `CC1(N)CCN([C@H]2CC[C@@H](n3cc(-c4ccc(Oc5ccccc5)cc4)c4c(N)ncnc43)CC2)CC1` [Example 51, 7-((cis)-4-(4-amino-4-methylpiperidin-1-yl)cyclohexyl)-5-(4-phenoxyphenyl)-7H pyrrolo[2,3-d]pyrimidin-4-amine], less than 50 nM; as for `CN1CCN([C@H]2CC[C@H](n3cc(-c4ccc(Oc5ccccc5)cc4)c4c(N)ncnc43)CC2)CC1CO` (stereo partly drawn) [Example 33, (4-((trans)-4-(4-amino-5-(4-phenoxyphenyl)-7H-pyrrolo[2,3-d]pyrimidin-7-yl)cyclohexyl)-1-methylpiperazin-2-yl)methanol], less than 50 nM.

On to `Nc1ncnc2c1c(-c1ccc(NC(=O)CCc3ccccc3)cc1)cn2C1CCC(C2OCC(N)CO2)CC1` (centres unmarked) [Example 139, N-(4-(4-Amino-7-(4-(5-amino-1,3-dioxan-2-yl)cyclohexyl)-7H-pyrrolo[2,3-d]pyrimidin-5-yl)phenyl)-3-phenylpropanamide], for which the IC50 under setting [1] was in the range of 50 to 250 nM. Turning to `Nc1ncnc2c1c(-c1ccc(Oc3ccccc3)cc1)cn2[C@H]1CC[C@H](NCc2n[nH]c(=O)[nH]2)CC1` [Example 85, 3-((((trans)-4-(4-amino-5-(4-phenoxyphenyl)-7H-pyrrolo[2,3-d]pyrimidin-7-yl)cyclohexyl)amino)methyl)-1H-1,2,4-triazol-5(4H)-one], under setting [1], the IC50 is less than 50 nM. Turning to `CN1CCC([C@H]2OC[C@@H](n3cc(-c4ccc(Oc5ccccc5)cc4)c4c(N)ncnc43)CO2)CC1` [Example 146, 7-((2s,5s)-2-(1-Methylpiperidin-4-yl)-1,3-dioxan-5-yl)-5-(4-phenoxyphenyl)-7H-pyrrolo[2,3-d]pyrimidin-4-amine], the IC50 under setting [1] is less than 50 nM. In the case of `CN1CCC(N2CCC(n3cc(-c4ccc(NC(=O)Nc5cc(C(C)(C)C)on5)cc4)c4c(N)ncnc43)CC2)CC1` [Example 151, 1-(4-(4-amino-7-(1′-methyl-[1,4′-bipiperidin]-4-yl)-7H-pyrrolo[2,3-d]pyrimidin-5-yl)phenyl)-3-(5-(tert-butyl)isoxazole-3-yl)urea], the IC50 under setting [1] is less than 50 nM. As to `CN1CCN([C@H]2CC[C@H](n3cc(-c4ccc(Oc5ccccc5)cc4Cl)c4c(N)ncnc43)CC2)CC1` [Example 106, 5-(2-chloro-4-phenoxyphenyl)-7-((trans)-4-(4-methylpiperazin-1-yl)cyclohexyl)-7H-pyrrolo[2,3-d]pyrimidin-4-amine], under setting [1], the IC50 is less than 50 nM. On to `CN1CCN([C@H]2CC[C@@H](c3cc(-c4ccc(Oc5ccccc5)cc4)c4c(N)ncnn43)CC2)CC1` [Example 167, 7-((cis)-4-(4-Methylpiperazin-1-yl)cyclohexyl)-5-(4-phenoxyphenyl)pyrrolo[2,1-f][1,2,4]triazin-4-amine], for which the IC50 under setting [1] lay in the range of 250 to 10000 nM.

Regarding `CC[C@H]1CN([C@H]2CC[C@@H](n3nc(-c4ccc(Oc5ccccc5)cc4F)c4c(N)ncnc43)CC2)CCN1` [Example 32, 1-((cis)-4-((S)-3-ethylpiperazin-1-yl)cyclohexyl)-3-(2-fluoro-4-phenoxyphenyl)-1H-pyrazolo[3,4-d]pyrimidin-4-amine], the IC50 under setting [1] fell in the range of 50 to 250 nM. On to `C[N+]1(C)CCN([C@H]2CC[C@H](n3nc(-c4ccc(Oc5ccccc5)cc4F)c4c(N)ncnc43)CC2)CC1` [Example 7, 4-((trans)-4-(4-amino-3-(2-fluoro-4-phenoxyphenyl)-1H-pyrazolo[3,4-d]pyrimidin-1-yl)cyclohexyl)-1,1-dimethylpiperazin-1-ium], for which the IC50 under setting [1] is less than 50 nM. Regarding `CN1CCN([C@H]2CC[C@H](n3cc(-c4ccc(Oc5ccccc5F)cc4)c4c(N)ncnc43)CC2)CC1` [Example 108, 5-(4-(2-fluorophenoxy)phenyl)-7-((trans)-4-(4-methylpiperazin-1-yl)cyclohexyl)-7H-pyrrolo[2,3-d]pyrimidin-4-amine], the IC50 under setting [1] is less than 50 nM. For the molecule `C[N+]1(C)CCN([C@H]2CC[C@@H](n3nc(-c4ccc(Oc5ccccc5)cc4F)c4c(N)ncnc43)CC2)CC1` [Example 8, 4-((cis)-4-(4-amino-3-(2-fluoro-4-phenoxyphenyl)-1H-pyrazolo[3,4-d]pyrimidin-1-yl)cyclohexyl)-1,1-dimethylpiperazin-1-ium], the IC50 under setting [1] was 50 to 250 nM. As for `COc1cc(-c2nn([C@H]3CC[C@H](N4CCN(C)CC4)CC3)c3ncnc(N)c23)ccc1NC(=O)Nc1cc(C(C)(C)C)on1` [Example 123, 1-(4-(4-amino-1-((trans)-4-(4-methylpiperazin-1-yl)cyclohexyl)-1H-pyrazolo[3,4-d]pyrimidin-3-yl)-2-methoxyphenyl)-3-(5-(tert-butyl)isoxazol-3-yl)urea], the IC50 under setting [1] was less than 50 nM. Take `Nc1ncnc2c1c(-c1ccc(Oc3ccccc3)cc1)cn2[C@H]1CC[C@@H](N2CCN3CCCC3C2)CC1` (stereo partly drawn) [Example 45, 7-((cis)-4-(hexahydropyrrolo[1,2-a]pyrazin-2(1H)-yl)cyclohexyl)-5-(4-phenoxyphenyl)-7H-pyrrolo[2,3-d]pyrimidin-4-amine]: under setting [1], the IC50 was 250 to 10000 nM. As for `NC(=O)C=C1CCC(n2cc(-c3ccc(Oc4ccccc4)cc3)c3c(N)ncnc32)CC1` (centres unmarked) [Example 94, 2-(4-(4-Amino-5-(4-phenoxyphenyl)-7H-pyrrolo[2,3-d]pyrimidin-7-yl)cyclohexylidene)acetamide], the IC50 under setting [1] was less than 50 nM. `CC1(C)CN([C@H]2CC[C@H](n3nc(-c4ccc(Oc5ccccc5)cc4F)c4c(N)ncnc43)CC2)CCN1` [Example 28, 1-((trans)-4-(3,3-dimethylpiperazin-1-yl)cyclohexyl)-3-(2-fluoro-4-phenoxyphenyl)-1H-pyrazolo[3,4-d]pyrimidin-4-amine]: the IC50 under setting [1] lay within 50 to 250 nM. On to `C[C@H]1CN([C@H]2CC[C@H](n3cc(-c4ccc(NC(=O)Nc5cc(C(C)(C)C)on5)cc4)c4c(N)ncnc43)CC2)CCN1` [Example 129, 1-(4-(4-amino-7-((trans)-4-((S)-3-methylpiperazin-1-yl)cyclohexyl)-7H-pyrrolo[2,3-d]pyrimidin-5-yl)phenyl)-3-(5-(tert-butyl)isoxazol-3-yl)urea], for which the IC50 under setting [1] is less than 50 nM.

Consider `CN1CC2(C1)CN([C@H]1CC[C@H](n3cc(-c4ccc(Oc5ccccc5)cc4)c4c(N)ncnc43)CC1)C2` [Example 79, 7-((trans)-4-(6-methyl-2,6-diazaspiro[3.3]heptan-2-yl)cyclohexyl)-5-(4-phenoxyphenyl)-7H-pyrrolo[2,3-d]pyrimidin-4-amine], for which the IC50 under setting [1] fell in the range of 50 to 250 nM. Take `Nc1ncnc2c1c(-c1ccc(Oc3ccccc3)cc1)cn2[C@H]1CC[C@@H](N2CC(N)C2)CC1` [Example 78, 7-((cis)-4-(3-aminoazetidin-1-yl)cyclohexyl)-5-(4-phenoxyphenyl)-7H-pyrrolo[2,3-d]pyrimidin-4-amine]: the IC50 under setting [1] lay within 250 to 10000 nM. In the case of `CCc1cc(NC(=O)Nc2ccc(-c3cn([C@H]4CC[C@H](N5CCN(C)CC5)CC4)c4ncnc(N)c34)cc2)no1` [Example 117, 1-(4-(4-amino-7-((trans)-4-(4-methylpiperazin-1-yl)cyclohexyl)-7H-pyrrolo[2,3-d]pyrimidin-5-yl)phenyl)-3-(5-ethylisoxazol-3-yl)urea], the IC50 under setting [1] was 50 to 250 nM. As to `Nc1ncnc2c1c(-c1ccc(Oc3ccccc3)cc1)cn2[C@H]1CC[C@H](N2CCC[C@@H](N)C2)CC1` [Example 59, 7-((trans)-4-((R)-3-aminopiperidin-1-yl)cyclohexyl)-5-(4-phenoxyphenyl)-7H-pyrrolo[2,3-d]pyrimidin-4-amine], the IC50 under setting [1] is less than 50 nM. `CC(=O)NN1CCN([C@H]2CC[C@@H](n3cc(-c4ccc(Oc5ccccc5)cc4)c4c(N)ncnc43)CC2)CC1` [Example 41, N-(4-((cis)-4-(4-amino-5-(4-phenoxyphenyl)-7H-pyrrolo[2,3-d]pyrimidin-7-yl)cyclohexyl)piperazin-1-yl)acetamide]: the IC50 under setting [1] was less than 50 nM. With `CC(C)(O)CN1CCN([C@H]2CC[C@H](n3cc(-c4ccc(Oc5ccccc5)cc4)c4c(N)ncnc43)CC2)CC1` [Example 89, 1-(4-((trans)-4-(4-amino-5-(4-phenoxyphenyl)-7H-pyrrolo[2,3-d]pyrimidin-7-yl)cyclohexyl)piperazin-1-yl)-2-methylpropan-2-ol], under setting [1], the IC50 is less than 50 nM. Still for that read-out and setting: for `CN1CCN([C@H]2CC[C@H](n3cc(-c4ccc(C(O)c5ccccc5)cc4)c4c(N)ncnc43)CC2)CC1` (stereo partly drawn) [Example 114, (4-(4-amino-7-((trans)-4-(4-methylpiperazin-1-yl)cyclohexyl)-7H-pyrrolo[2,3-d]pyrimidin-5-yl)phenyl)(phenyl)methanol] the value was less than 50 nM.

For the molecule `C[C@H]1CC(N2CCC(n3cc(-c4ccc(NC(=O)Nc5cc(C(C)(C)C)on5)cc4)c4c(N)ncnc43)CC2)CCN1` (stereo partly drawn) [Example 156, 1-(4-(4-amino-7-((2′S)-2′-methyl-[1,4′-bipiperidin]-4-yl)-7H-pyrrolo[2,3-d]pyrimidin-5-yl)phenyl)-3-(5-(tert-butyl)isoxazol-3-yl)urea], the IC50 under setting [1] was less than 50 nM. `CC1(N)CCN([C@H]2CC[C@H](n3cc(-c4ccc(Oc5ccccc5)cc4)c4c(N)ncnc43)CC2)CC1` [Example 50, 7-((trans)-4-(4-amino-4-methylpiperidin-1-yl)cyclohexyl)-5-(4-phenoxyphenyl)-7H-pyrrolo[2,3-d]pyrimidin-4-amine]: under setting [1], the IC50 was in the range of 50 to 250 nM. For `[2H]C([2H])([2H])N1CCN([C@H]2CC[C@@H](n3cc(-c4ccc(Oc5ccccc5)cc4)c4c(N)ncnc43)CC2)CC1` (single isomer, unassigned) [Example 4, 7-((cis)-4-(4-(trideuteriomethyl)piperazin-1-yl)cyclohexyl)-5-(4-phenoxyphenyl)-7H-pyrrolo[2,3-d]pyrimidin-4-amine], the IC50 lay within 250 to 10000 nM.
